Measurements taken from the NIST ThermoML archive (doi:10.1021/je300628e).
± gives the expanded uncertainty stated by the source.

Experiments:
[1] = 101 kPa, Liquid; for viscosity: Concentric cylinders viscometry; for mass density: Vibrating tube method
[2] = wn = mass fraction of the nth substance listed; conditions: 101 kPa, Liquid; for viscosity: Concentric cylinders viscometry; for mass density: Vibrating tube method

Row | Structure (SMILES) | viscosity ([1]; 303.15 K) [mPa·s] | mass density ([1]; 303.15 K) [kg/m3] | viscosity ([1]; 313.15 K) [mPa·s] | mass density ([1]; 313.15 K) [kg/m3] | viscosity ([1]; 333.15 K) [mPa·s] | mass density ([1]; 333.15 K) [kg/m3] | viscosity ([1]; 353.15 K) [mPa·s] | mass density ([1]; 353.15 K) [kg/m3] | viscosity ([1]; 363.15 K) [mPa·s] | mass density ([1]; 363.15 K) [kg/m3] | further results
1 | CCCCn1cc[n+](C)c1.N#CN=C=[N-] [1-butyl-3-methylimidazolium dicyanamide] | 23.92 ± 0.27 | 1055.1 ± 1 | 17.12 ± 0.2 | 1049.3 ± 0.9 | 10.49 ± 0.15 | 1037.1 ± 0.9 | 6.773 ± 0.12 | 1024.2 ± 0.9 | 5.523 ± 0.12 | 1019.3 ± 0.9 | –
2 | CCCCn1cc[n+](C)c1.F[B-](F)(F)F [1-butyl-3-methylimidazolium tetrafluoroborate] | 71.63 ± 0.8 | 1191.3 ± 1.3 | 46.96 ± 0.5 | 1182.3 ± 1.2 | 23.8 ± 0.27 | 1166.7 ± 1.2 | 13.94 ± 0.18 | 1154.9 ± 1.2 | 11.32 ± 0.16 | 1139.4 ± 1.1 | –
3 | CCn1cc[n+](C)c1.O=S(=O)([O-])C(F)(F)F [1-ethyl-3-methylimidazolium trifluoromethanesulfonate] | 36.14 ± 0.39 | 1381.8 ± 1.7 | 26.65 ± 0.3 | 1371.7 ± 1.7 | 16.45 ± 0.2 | 1350.9 ± 1.6 | 12.17 ± 0.16 | 1338.7 ± 1.6 | 11.14 ± 0.15 | 1326 ± 1.6 | –
4 | CN(CCO)CCO [N-methyldiethanolamine] | 58.62 ± 0.47 | 1034.7 ± 0.5 | 37.68 ± 0.32 | 1027.1 ± 0.5 | 15.26 ± 0.16 | 1013 ± 0.5 | 6.756 ± 0.11 | 996.3 ± 0.5 | 4.539 ± 0.11 | 993.9 ± 0.5 | –
5 | CN(CCO)CCO [N-methyldiethanolamine] + O | – | – | – | – | – | – | – | – | – | – | viscosity ([2]; 303.15 K, w1 = 0.234): 2.285 ± 0.1 mPa·s; viscosity ([2]; 303.15 K, w1 = 0.459): 2.85 ± 0.33 mPa·s; mass density ([2]; 303.15 K, w1 = 0.234): 1018.7 ± 6 kg/m3; mass density ([2]; 303.15 K, w1 = 0.459): 1018.3 ± 6 kg/m3; viscosity ([2]; 313.15 K, w1 = 0.234): 1.612 ± 0.1 mPa·s; viscosity ([2]; 313.15 K, w1 = 0.459): 2.238 ± 0.23 mPa·s; mass density ([2]; 313.15 K, w1 = 0.234): 1014.1 ± 6 kg/m3; mass density ([2]; 313.15 K, w1 = 0.459): 1011 ± 6 kg/m3; viscosity ([2]; 333.15 K, w1 = 0.234): 1.418 ± 0.1 mPa·s; viscosity ([2]; 333.15 K, w1 = 0.459): 1.621 ± 0.13 mPa·s; mass density ([2]; 333.15 K, w1 = 0.234): 1003 ± 6 kg/m3; mass density ([2]; 333.15 K, w1 = 0.459): 1005.2 ± 6 kg/m3; viscosity ([2]; 353.15 K, w1 = 0.234): 1.121 ± 0.1 mPa·s; viscosity ([2]; 353.15 K, w1 = 0.459): 1.485 ± 0.11 mPa·s; mass density ([2]; 353.15 K, w1 = 0.234): 987.2 ± 6 kg/m3; mass density ([2]; 353.15 K, w1 = 0.459): 989.6 ± 6 kg/m3; viscosity ([2]; 363.15 K, w1 = 0.234): 1.112 ± 0.1 mPa·s; viscosity ([2]; 363.15 K, w1 = 0.459): 1.337 ± 0.1 mPa·s; mass density ([2]; 363.15 K, w1 = 0.234): 981.3 ± 6 kg/m3; mass density ([2]; 363.15 K, w1 = 0.459): 971.8 ± 6 kg/m3
